Key:
Details in all cases: 48 h
SEM cells [1] = assay: AUC of viability dose-response curve (% viability x log10 dose units); higher = less sensitive
How it was run: (§1)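 Medium-adapted leukemia cells in 1536-well plates, at 500 or 1000 cells/well, were incubated for 48 h at 37°C with library compounds in DMSO at 11 threefold doses from 47 μM to 0.79 nM. CellTiter-Glo One luminescence normalised per plate to DMSO and cell-free wells was fitted with a four-parameter log-logistic model over log10 doses. Area under the curve was integrated from this fit by trapezoidal rule, with curves beyond full viability scaled and failed quality-control curves removed.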

P12-Ichikawa [2] = assay: as above
How it was run: as §1

NOMO1 [3] = assay: as above
How it was run: as §1

SEM cells [4] = assay: cell viability relative to DMSO control; higher = less cytotoxic
How it was run: (§2)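 Leukemia cells (NOMO1 or SEM, 500 cells/well; P12-Ichikawa, 1000 cells/well) were seeded in 5 μl in 1536-well plates after at least four passages of adaptation to each medium. They received library compounds in DMSO by pin dosing, 11 threefold points from 47 μM to 0.79 nM. Luminescence with CellTiter-Glo One was read after 48 h at 37°C. Viability is stated per plate relative to DMSO wells, with cell-free wells as background.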

P12-Ichikawa [5] = assay: as above
How it was run: as §2

NOMO1 [6] = assay: as above
How it was run: as §2

Cc1cc2c(C(N)=O)cccc2n1-c1nc2c(c(NCc3ccccc3)n1)COCC2
AUC of viability dose-response curve
Details	NOMO1 [3]	P12-Ichikawa [2]	SEM cells [1]
HPLM + 10% dialyzed FBS	312	330	295
RPMI 5 mM glucose + 10% FBS	315	322	310
RPMI 5 mM glucose + 10% dialyzed FBS	293	334	312

cell viability [%]
Details	NOMO1 [6]	P12-Ichikawa [5]	SEM cells [4]
HPLM + 10% dialyzed FBS, 0.000781 µM	117	99.5	89.6
HPLM + 10% dialyzed FBS, 0.00234 µM	124	92.4	95.4
HPLM + 10% dialyzed FBS, 0.00702 µM	101	92.2	73
HPLM + 10% dialyzed FBS, 0.0211 µM	108	93.2	87.2
HPLM + 10% dialyzed FBS, 0.0632 µM	114	99.8	93.5
HPLM + 10% dialyzed FBS, 0.19 µM	103	89.6	93.3
HPLM + 10% dialyzed FBS, 0.569 µM	85.5	78.4	84.9
HPLM + 10% dialyzed FBS, 1.71 µM	25	85.9	38.7
HPLM + 10% dialyzed FBS, 5.12 µM	4.02	2.18	3.03
HPLM + 10% dialyzed FBS, 15.4 µM	3.66	2.06	2.9
HPLM + 10% dialyzed FBS, 46.1 µM	3.75	3.98	3.03
RPMI 5 mM glucose + 10% FBS, 0.000781 µM	89.3	99.6	–
RPMI 5 mM glucose + 10% FBS, 0.00234 µM	106	96.2	–
RPMI 5 mM glucose + 10% FBS, 0.00702 µM	92.9	95.5	–
RPMI 5 mM glucose + 10% FBS, 0.0211 µM	87.8	93.8	–
RPMI 5 mM glucose + 10% FBS, 0.0632 µM	99.8	91.2	–
RPMI 5 mM glucose + 10% FBS, 0.19 µM	98	94.6	–
RPMI 5 mM glucose + 10% FBS, 0.569 µM	81.6	81.7	–
RPMI 5 mM glucose + 10% FBS, 1.71 µM	44.1	63.1	–
RPMI 5 mM glucose + 10% FBS, 5.12 µM	3.08	2.37	–
RPMI 5 mM glucose + 10% FBS, 15.4 µM	3.4	1.97	–
RPMI 5 mM glucose + 10% FBS, 46.1 µM	3.91	2.61	–
RPMI 5 mM glucose + 10% dialyzed FBS, 0.000781 µM	92.9	95.9	94.5
RPMI 5 mM glucose + 10% dialyzed FBS, 0.00234 µM	90.3	94.4	105
RPMI 5 mM glucose + 10% dialyzed FBS, 0.00702 µM	92.4	95.6	85.5
RPMI 5 mM glucose + 10% dialyzed FBS, 0.0211 µM	92.8	97.7	87.7
RPMI 5 mM glucose + 10% dialyzed FBS, 0.0632 µM	91.2	96.3	101
RPMI 5 mM glucose + 10% dialyzed FBS, 0.19 µM	100	95.4	99.4
RPMI 5 mM glucose + 10% dialyzed FBS, 0.569 µM	73.3	91.8	95.8
RPMI 5 mM glucose + 10% dialyzed FBS, 1.71 µM	20.6	72.9	24.1
RPMI 5 mM glucose + 10% dialyzed FBS, 5.12 µM	3.21	2.73	3.45
RPMI 5 mM glucose + 10% dialyzed FBS, 15.4 µM	2.75	2.42	3.44
RPMI 5 mM glucose + 10% dialyzed FBS, 46.1 µM	2.84	2.96	3.1

Nc1ncnc2c1ncn2[C@@H]1O[C@H](CO)C[C@H]1O
AUC of viability dose-response curve
Details	NOMO1 [3]	P12-Ichikawa [2]	SEM cells [1]
HPLM + 10% dialyzed FBS	439	442	426
RPMI 5 mM glucose + 10% FBS	420	439	445
RPMI 5 mM glucose + 10% dialyzed FBS	445	430	416

cell viability [%]
Details	NOMO1 [6]	P12-Ichikawa [5]	SEM cells [4]
HPLM + 10% dialyzed FBS, 0.000781 µM	105	92.5	95.8
HPLM + 10% dialyzed FBS, 0.00234 µM	97.1	96.4	98
HPLM + 10% dialyzed FBS, 0.00702 µM	97.1	92.8	111
HPLM + 10% dialyzed FBS, 0.0211 µM	102	93.1	106
HPLM + 10% dialyzed FBS, 0.0632 µM	94.3	98.8	111
HPLM + 10% dialyzed FBS, 0.19 µM	101	94.1	101
HPLM + 10% dialyzed FBS, 0.569 µM	73	93.1	103
HPLM + 10% dialyzed FBS, 1.71 µM	87.4	88.8	97.4
HPLM + 10% dialyzed FBS, 5.12 µM	95.2	92.2	79.7
HPLM + 10% dialyzed FBS, 15.4 µM	81.7	89.3	59.4
HPLM + 10% dialyzed FBS, 46.1 µM	79.8	89	41.2
RPMI 5 mM glucose + 10% FBS, 0.000781 µM	85.7	87.9	95
RPMI 5 mM glucose + 10% FBS, 0.00234 µM	87	104	96
RPMI 5 mM glucose + 10% FBS, 0.00702 µM	94.7	94	99.6
RPMI 5 mM glucose + 10% FBS, 0.0211 µM	87.9	94.4	98.7
RPMI 5 mM glucose + 10% FBS, 0.0632 µM	93	87.7	104
RPMI 5 mM glucose + 10% FBS, 0.19 µM	84.4	96	93.2
RPMI 5 mM glucose + 10% FBS, 0.569 µM	88	93	95.4
RPMI 5 mM glucose + 10% FBS, 1.71 µM	80.7	93.5	93.6
RPMI 5 mM glucose + 10% FBS, 5.12 µM	91.1	85.3	97.8
RPMI 5 mM glucose + 10% FBS, 15.4 µM	82.5	86.8	73
RPMI 5 mM glucose + 10% FBS, 46.1 µM	92.4	87.6	67.7
RPMI 5 mM glucose + 10% dialyzed FBS, 0.000781 µM	103	83.8	86.7
RPMI 5 mM glucose + 10% dialyzed FBS, 0.00234 µM	109	90.1	93.4
RPMI 5 mM glucose + 10% dialyzed FBS, 0.00702 µM	94.9	97.7	87.9
RPMI 5 mM glucose + 10% dialyzed FBS, 0.0211 µM	103	90.9	99.7
RPMI 5 mM glucose + 10% dialyzed FBS, 0.0632 µM	103	87.4	96.1
RPMI 5 mM glucose + 10% dialyzed FBS, 0.19 µM	90.2	91.2	91.7
RPMI 5 mM glucose + 10% dialyzed FBS, 0.569 µM	87.8	94.5	95.6
RPMI 5 mM glucose + 10% dialyzed FBS, 1.71 µM	92.2	87.6	89.6
RPMI 5 mM glucose + 10% dialyzed FBS, 5.12 µM	85.6	86.1	91.1
RPMI 5 mM glucose + 10% dialyzed FBS, 15.4 µM	91.2	89.6	65
RPMI 5 mM glucose + 10% dialyzed FBS, 46.1 µM	92.1	92.3	41.7
